HELM strings list units from the 5' end as sugar, base in round brackets, then linkage (d deoxyribose, r ribose, m 2'-O-methyl, p phosphodiester). Strings are as the collection lists them, not checked against the first reports. ss, as = sense and antisense strand; [fl2r] = 2'-fluoro
Also: test system not given here.

For this data set the following is noted: siRNA.
For “RNA1{m(U)p.r(U)p.m(A)p.r(C)p.m(A)p.r(A)p.m(A)p.r(G)p.m(G)p.r(A)p.m(U)p.r(C)p.m(U)p.r(C)p.m(C)p.r(U)p.m(C)p.r(C)p.m(C)p.r(T)p.r(T)}|RNA2{r(G)p.r(G)p.r(G)p.m(A)p.r(G)p.r(G)p.m(A)p.r(G)p.m(A)p.r(U)p.r(C)p.r(C)p.r(U)p.r(U)p.r(U)p.r(G)p.r(U)p.m(A)p.m(A)p.r(T)p.r(T)}$$$RNA1{StrandType:ss}|RNA2{StrandType:as}$”, the target mRNA knockdown came out at 51%.

With “RNA1{m(U)p.r(U)p.m(A)p.r(C)p.m(A)p.r(A)p.m(A)p.r(G)p.m(G)p.r(A)p.m(U)p.r(C)p.m(U)p.r(C)p.m(C)p.r(U)p.m(C)p.r(C)p.m(C)p.r(T)p.r(T)}|RNA2{r(G)p.r(G)p.r(G)p.r(A)p.r(G)p.r(G)p.r(A)p.r(G)p.r(A)p.r(U)p.m(C)p.m(C)p.r(U)p.r(U)p.r(U)p.r(G)p.r(U)p.r(A)p.r(A)p.r(T)p.r(T)}$$$RNA1{StrandType:ss}|RNA2{StrandType:as}$”, the target mRNA knockdown came out at 57%.

“RNA1{m(U)p.r(U)p.m(G)p.r(G)p.m(G)p.r(G)p.m(A)p.r(A)p.m(G)p.r(C)p.m(G)p.r(G)p.m(C)p.r(C)p.m(G)p.r(G)p.m(C)p.r(G)p.m(G)p.r(T)p.r(T)}|RNA2{r(C)p.r(C)p.r(G)p.r(C)p.r(C)p.r(G)p.r(G)p.r(C)p.r(C)p.r(G)p.r(C)p.r(U)p.r(U)p.r(C)p.r(C)p.r(C)p.r(C)p.m(A)p.m(A)p.r(T)p.r(T)}$$$RNA1{StrandType:ss}|RNA2{StrandType:as}$” registered a target mRNA knockdown of 36%.

With “RNA1{m(U)p.r(U)p.m(U)p.r(G)p.m(A)p.r(U)p.m(C)p.r(A)p.m(G)p.r(C)p.m(G)p.r(G)p.m(A)p.r(G)p.m(A)p.r(C)p.m(U)p.r(C)p.m(G)p.r(T)p.r(T)}|RNA2{r(C)p.r(G)p.r(A)p.r(G)p.r(U)p.r(C)p.r(U)p.r(C)p.r(C)p.m(G)p.r(C)p.r(U)p.r(G)p.r(A)p.m(U)p.r(C)p.r(A)p.r(A)p.r(A)p.r(T)p.r(T)}$$$RNA1{StrandType:ss}|RNA2{StrandType:as}$”, the target mRNA knockdown was determined as 49%.

Turning to “RNA1{r(A)p.[fl2r](A)p.r(G)p.r(G)p.r(C)p.[fl2r](C)p.r(A)p.r(A)p.r(C)p.r(C)p.r(G)p.r(A)p.[fl2r](U)p.r(A)p.r(C)p.r(U)p.r(U)p.r(C)p.r(U)p.r(T)p.r(T)}|RNA2{r(A)p.r(G)p.r(A)p.r(A)p.r(G)p.[fl2r](U)p.r(A)p.r(U)p.r(C)p.r(G)p.r(G)p.r(U)p.[fl2r](U)p.r(G)p.r(G)p.r(C)p.r(C)p.r(U)p.r(U)p.r(T)p.r(T)}$$$RNA1{StrandType:ss}|RNA2{StrandType:as}$”, the target mRNA knockdown was 68%.

The substance “RNA1{r(A)p.[fl2r](C)p.r(A)p.[fl2r](U)p.r(A)p.[fl2r](G)p.r(A)p.r(G)p.r(G)p.r(A)p.r(A)p.r(G)p.r(A)p.r(C)p.r(G)p.r(C)p.r(G)p.r(G)p.r(A)p.r(T)p.r(T)}|RNA2{r(U)p.r(C)p.r(C)p.r(G)p.r(C)p.r(G)p.r(U)p.r(C)p.r(U)p.r(U)p.r(C)p.r(C)p.r(U)p.r(C)p.[fl2r](U)p.r(A)p.[fl2r](U)p.r(G)p.r(U)p.r(T)p.r(T)}$$$RNA1{StrandType:ss}|RNA2{StrandType:as}$” showed a target mRNA knockdown of 86%.

As for “RNA1{r(A)p.m(A)p.r(G)p.m(G)p.r(A)p.m(G)p.r(A)p.m(U)p.r(C)p.m(A)p.r(A)p.m(C)p.r(A)p.m(U)p.r(U)p.m(U)p.r(U)p.m(C)p.r(A)p.r(T)p.r(T)}|RNA2{m(U)p.r(G)p.m(A)p.r(A)p.m(A)p.r(A)p.m(U)p.r(G)p.m(U)p.r(U)p.m(G)p.r(A)p.m(U)p.r(C)p.m(U)p.r(C)p.m(C)p.r(U)p.m(U)p.r(T)p.r(T)}$$$RNA1{StrandType:ss}|RNA2{StrandType:as}$”, the target mRNA knockdown is 83%.

“RNA1{r(A)p.m(A)p.r(G)p.m(G)p.r(A)p.m(G)p.r(A)p.m(U)p.r(C)p.m(A)p.r(A)p.m(C)p.r(A)p.m(U)p.r(U)p.m(U)p.r(U)p.m(C)p.r(A)p.r(T)p.r(T)}|RNA2{r(U)p.m(G)p.r(A)p.m(A)p.r(A)p.m(A)p.r(U)p.m(G)p.r(U)p.m(U)p.r(G)p.m(A)p.r(U)p.m(C)p.r(U)p.m(C)p.r(C)p.m(U)p.r(U)p.r(T)p.r(T)}$$$RNA1{StrandType:ss}|RNA2{StrandType:as}$”: the target mRNA knockdown came out at 61%.

“RNA1{r(A)p.m(C)p.m(A)p.r(G)p.r(A)p.r(A)p.r(A)p.r(G)p.m(A)p.r(G)p.r(U)p.r(U)p.r(C)p.r(G)p.r(A)p.r(G)p.r(G)p.r(A)p.r(G)p.r(T)p.r(T)}|RNA2{r(C)p.r(U)p.r(C)p.r(C)p.r(U)p.r(C)p.r(G)p.r(A)p.r(A)p.r(C)p.r(U)p.r(C)p.r(U)p.r(U)p.r(U)p.r(C)p.m(U)p.r(G)p.r(U)p.r(T)p.r(T)}$$$RNA1{StrandType:ss}|RNA2{StrandType:as}$”: the target mRNA knockdown amounted to 61%.

“RNA1{r(A)p.m(C)p.m(C)p.m(U)p.m(U)p.m(U)p.m(C)p.m(C)p.r(A)p.m(C)p.m(U)p.m(U)p.m(C)p.m(U)p.r(A)p.r(A)p.r(G)p.m(C)p.m(C)p.r(T)p.r(T)}|RNA2{r(G)p.r(G)p.r(C)p.r(U)p.r(U)p.r(A)p.r(G)p.r(A)p.r(A)p.r(G)p.r(U)p.r(G)p.r(G)p.r(A)p.r(A)p.r(A)p.r(G)p.r(G)p.r(U)p.r(T)p.r(T)}$$$RNA1{StrandType:ss}|RNA2{StrandType:as}$” had a target mRNA knockdown of 75%.

For “RNA1{r(A)p.m(C)p.r(A)p.r(G)p.r(A)p.r(A)p.r(A)p.r(G)p.r(A)p.r(G)p.r(U)p.r(U)p.r(C)p.r(G)p.r(A)p.r(G)p.r(G)p.r(A)p.r(G)p.r(T)p.r(T)}|RNA2{r(C)p.r(U)p.r(C)p.r(C)p.r(U)p.r(C)p.r(G)p.r(A)p.r(A)p.r(C)p.r(U)p.r(C)p.r(U)p.r(U)p.r(U)p.r(C)p.m(U)p.r(G)p.r(U)p.r(T)p.r(T)}$$$RNA1{StrandType:ss}|RNA2{StrandType:as}$”, the target mRNA knockdown stood at 64%.

In turn, “RNA1{r(A)p.m(G)p.r(A)p.m(U)p.r(G)p.m(U)p.m(U)p.m(C)p.m(U)p.m(C)p.r(G)p.m(U)p.r(A)p.r(A)p.m(G)p.r(G)p.r(A)p.m(C)p.r(G)p.r(T)p.r(T)}|RNA2{r(C)p.r(G)p.r(U)p.r(C)p.r(C)p.r(U)p.r(U)p.r(A)p.r(C)p.r(G)p.r(A)p.r(G)p.r(A)p.r(A)p.r(C)p.r(A)p.r(U)p.r(C)p.r(U)p.r(T)p.r(T)}$$$RNA1{StrandType:ss}|RNA2{StrandType:as}$” returned a target mRNA knockdown of 53%.

For the substance “RNA1{r(A)p.m(U)p.m(C)p.r(G)p.r(A)p.m(C)p.m(C)p.m(U)p.r(G)p.r(A)p.r(A)p.r(G)p.r(G)p.r(A)p.r(G)p.m(U)p.r(A)p.m(C)p.r(G)p.r(T)p.r(T)}|RNA2{m(C)p.r(G)p.m(U)p.r(A)p.m(C)p.m(U)p.m(C)p.m(C)p.m(U)p.m(U)p.m(C)p.r(A)p.r(G)p.r(G)p.m(U)p.m(C)p.r(G)p.r(A)p.m(U)p.r(T)p.r(T)}$$$RNA1{StrandType:ss}|RNA2{StrandType:as}$”, the target mRNA knockdown worked out at 19%.

As for “RNA1{r(A)p.m(U)p.r(A)p.r(C)p.r(U)p.m(U)p.m(G)p.r(G)p.r(C)p.r(G)p.r(G)p.r(G)p.m(C)p.r(U)p.r(C)p.r(U)p.r(U)p.r(U)p.r(C)p.r(T)p.r(T)}|RNA2{r(G)p.r(A)p.r(A)p.r(A)p.r(G)p.r(A)p.r(G)p.r(C)p.r(C)p.r(C)p.r(G)p.r(C)p.m(C)p.r(A)p.r(A)p.r(G)p.m(U)p.r(A)p.r(U)p.r(T)p.r(T)}$$$RNA1{StrandType:ss}|RNA2{StrandType:as}$”, the target mRNA knockdown was 70%.

For “RNA1{r(A)p.m(U)p.r(A)p.r(C)p.r(U)p.m(U)p.r(G)p.r(G)p.r(C)p.m(G)p.r(G)p.r(G)p.r(C)p.r(U)p.r(C)p.r(U)p.r(U)p.r(U)p.r(C)p.r(T)p.r(T)}|RNA2{r(G)p.r(A)p.r(A)p.r(A)p.r(G)p.r(A)p.r(G)p.r(C)p.r(C)p.r(C)p.r(G)p.r(C)p.m(C)p.r(A)p.r(A)p.r(G)p.m(U)p.r(A)p.r(U)p.r(T)p.r(T)}$$$RNA1{StrandType:ss}|RNA2{StrandType:as}$”, the target mRNA knockdown was 42%.

For the substance “RNA1{r(A)p.m(U)p.r(A)p.r(C)p.r(U)p.r(U)p.r(G)p.r(G)p.r(C)p.r(G)p.r(G)p.r(G)p.r(C)p.r(U)p.r(C)p.r(U)p.r(U)p.r(U)p.r(C)p.r(T)p.r(T)}|RNA2{r(G)p.r(A)p.r(A)p.r(A)p.r(G)p.r(A)p.r(G)p.r(C)p.r(C)p.r(C)p.r(G)p.r(C)p.r(C)p.r(A)p.r(A)p.r(G)p.r(U)p.r(A)p.r(U)p.r(T)p.r(T)}$$$RNA1{StrandType:ss}|RNA2{StrandType:as}$”, the target mRNA knockdown amounted to 48%.

In turn, “RNA1{r(A)p.m(U)p.r(G)p.r(G)p.r(G)p.r(A)p.r(G)p.r(A)p.r(A)p.r(G)p.m(U)p.r(A)p.r(G)p.r(U)p.r(C)p.r(C)p.r(C)p.r(C)p.r(C)p.r(T)p.r(T)}|RNA2{r(G)p.r(G)p.r(G)p.r(G)p.r(G)p.r(A)p.r(C)p.m(U)p.r(A)p.r(C)p.r(U)p.r(U)p.r(C)p.r(U)p.r(C)p.r(C)p.m(C)p.r(A)p.r(U)p.r(T)p.r(T)}$$$RNA1{StrandType:ss}|RNA2{StrandType:as}$” came in with a target mRNA knockdown of 82%.

With “RNA1{r(A)p.r(A)p.m(C)p.m(C)p.m(C)p.r(A)p.r(A)p.r(A)p.r(G)p.r(G)p.r(G)p.r(G)p.r(A)p.r(G)p.r(U)p.r(U)p.r(G)p.m(C)p.r(U)p.r(T)p.r(T)}|RNA2{m(A)p.r(G)p.m(C)p.r(A)p.m(A)p.r(C)p.m(U)p.r(C)p.m(C)p.r(C)p.m(C)p.r(U)p.m(U)p.r(U)p.m(G)p.r(G)p.m(G)p.r(U)p.m(U)p.r(T)p.r(T)}$$$RNA1{StrandType:ss}|RNA2{StrandType:as}$”, the target mRNA knockdown came to 37%.

Consider “RNA1{r(A)p.r(A)p.m(C)p.r(A)p.r(G)p.r(C)p.r(C)p.r(U)p.m(U)p.r(A)p.r(C)p.r(C)p.r(C)p.r(C)p.r(G)p.r(A)p.r(U)p.r(U)p.r(C)p.r(T)p.r(T)}|RNA2{r(G)p.r(A)p.r(A)p.r(U)p.r(C)p.r(G)p.r(G)p.r(G)p.r(G)p.m(U)p.r(A)p.r(A)p.r(G)p.r(G)p.r(C)p.m(U)p.r(G)p.r(U)p.r(U)p.r(T)p.r(T)}$$$RNA1{StrandType:ss}|RNA2{StrandType:as}$”, for which the target mRNA knockdown stood at 68%.

In turn, “RNA1{r(A)p.r(A)p.m(C)p.r(A)p.r(G)p.r(U)p.r(C)p.r(C)p.r(U)p.m(U)p.r(A)p.r(G)p.r(C)p.m(U)p.r(A)p.r(C)p.r(G)p.r(C)p.m(U)p.r(T)p.r(T)}|RNA2{r(A)p.r(G)p.r(C)p.r(G)p.m(U)p.r(A)p.r(G)p.r(C)p.m(U)p.r(A)p.r(A)p.r(G)p.r(G)p.r(A)p.r(C)p.m(U)p.r(G)p.r(U)p.r(U)p.r(T)p.r(T)}$$$RNA1{StrandType:ss}|RNA2{StrandType:as}$” displayed a target mRNA knockdown of 85%.

These data come from the OligoGym collection.
